Measurements reported in patent US20100074897A1, “Methods and Compositions related to HIF-1 alpha” (University of Utah Research Foundation, priority 2006, published 2010).

Experiments:
[1] = tested on: NBS1; test: NBS1 mRNA levels by real-time PCR in HCT116 cells; format: cell-based, human
Protocol: HCT116 TP53^+/+, HCT116 TP53^−/− cells (Koshiji et al., 2004), and U-2 OS were grown in McCoy's 5A medium (Invitrogen), and HeLa cells in DMEM. For hypoxic treatment, cells were incubated in a hypoxic chamber (Innova CO-48, New Brunswick Scientific) maintaining 1% O2 and 5% CO2. Recombinant adenovirus generation and infection were as previously described (Koshiji et al., 2004).
Total RNA extraction, reverse transcription, and quantitative PCR were performed essentially as described previously (Koshiji et al., 2005). Taqman Gene Expression Assay kits for NBS1, MRE11A, RAD50, MSH2, and ACTB were purchased from Applied Biosystems. All experiments were repeated three times in triplicates, and representative results were presented as means±standard errors.

[2] = tested on: HIF-2α; test: Western blot after siRNA transfection of HCT116 cells; format: cell-based, human
Protocol: Western Blot. Western blot analysis was carried out as described previously.
(§1) RNA Interference. Transfection with siRNA duplexes and siRNA sequence information were described previously (Koshiji et al. 2005). CHK1 siRNA was described previously (Zhao et al. 2002). Luciferase siRNA was used as negative control.

[3] = tested on: CDC25A; test: CDC25A and PGK1 mRNA by real-time RT-PCR in siRNA-transfected HCT116 cells; format: cell-based, human; details: siRNA 24 h then hypoxia 16 h
Protocol: Real-Time RT-PCR. Real-time RT-PCR was performed essentially as described previously (Koshiji et al. 2005). Primer and probe (Applied Biosystems) sequences were as follows: CDC25A, forward 5′-[…]-3′ (SEQ ID NO: 25), reverse 5′-[…]-3′ (SEQ ID NO: 26), probe 5′-FAM-[…]-MGB-3′ (SEQ ID NO: 27). PGK-1 (FAM-MGB probe) and ACTB (VIC-MGB probe) were detected with endogenous control reagents from Applied Biosystems. β-actin primers and probe were included into each reaction for normalization. All the experiments were repeated three times in triplicate, and representative results were presented in mean±standard error.
as §1

[4] = tested on: U-2 OS cells; test: immunofluorescent staining of γ-H2AX foci (DNA DSBs); format: cell-based
Protocol: To ascertain the functional relevance of NBS1 repression by hypoxia, the extent of DNA damage was assessed by immunofluorescent staining of γ-H2AX foci, a most sensitive method for quantifying DNA DSBs (Rogakou et al, 1998, 1999). […] Furthermore, results also show strikingly colocalized foci of γ-H2AX and 53BP1, the latter of which is known to interact with various DNA repair proteins including γ-H2AX in response to DSBs (Schultz et al, 2000). Thus, hypoxic cells experience DNA DSBs, presumably resulting from the NBS1 repression.
Immunofluorescence staining was performed essentially as described previously (Rogakou et al, 1999) with mouse anti-γ-H2AX antibody (Upstate) and rabbit anti-53BP1 (Novus Biologicals). Secondary antibodies were anti-mouse Alexa-546 and anti-rabbit Alexa-488 (Molecular Probes). Samples were mounted in antifade media, and were examined by fluorescent and laser-scanning confocal microscopy with a Nikon PCM 2000.

[5] = target: T1, recombinant PKD1 (Homo sapiens, UniProt Q15139); test: in vitro kinase assay; format: biochemical
T1 construct: purchased Upstate Biotechnology
T1 sequence (Q15139 1-912): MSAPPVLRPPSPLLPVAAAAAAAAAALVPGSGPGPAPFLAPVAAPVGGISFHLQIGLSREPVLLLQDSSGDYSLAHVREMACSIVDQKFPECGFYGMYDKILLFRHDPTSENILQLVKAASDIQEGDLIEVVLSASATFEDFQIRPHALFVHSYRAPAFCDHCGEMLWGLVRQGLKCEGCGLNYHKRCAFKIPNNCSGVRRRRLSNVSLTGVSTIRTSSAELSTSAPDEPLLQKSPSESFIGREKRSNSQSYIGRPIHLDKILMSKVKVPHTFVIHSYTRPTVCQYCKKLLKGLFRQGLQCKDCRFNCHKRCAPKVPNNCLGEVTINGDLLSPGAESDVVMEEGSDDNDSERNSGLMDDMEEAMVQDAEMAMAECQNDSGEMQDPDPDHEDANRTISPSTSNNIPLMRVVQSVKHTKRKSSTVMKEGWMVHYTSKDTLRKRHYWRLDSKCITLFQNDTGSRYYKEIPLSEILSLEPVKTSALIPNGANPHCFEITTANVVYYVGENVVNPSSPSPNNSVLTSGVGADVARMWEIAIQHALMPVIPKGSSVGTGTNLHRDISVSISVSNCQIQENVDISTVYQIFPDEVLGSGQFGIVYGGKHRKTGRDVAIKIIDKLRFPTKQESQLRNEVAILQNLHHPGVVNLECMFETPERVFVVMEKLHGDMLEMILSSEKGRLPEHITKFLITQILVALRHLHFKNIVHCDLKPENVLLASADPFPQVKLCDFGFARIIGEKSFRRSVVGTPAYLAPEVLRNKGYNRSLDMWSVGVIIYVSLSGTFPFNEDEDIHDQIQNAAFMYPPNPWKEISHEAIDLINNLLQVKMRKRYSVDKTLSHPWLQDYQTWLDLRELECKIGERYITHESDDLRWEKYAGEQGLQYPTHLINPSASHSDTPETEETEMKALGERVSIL
Protocol: The procedure for the in vitro kinase assay was modified from a previous report (Storz et al, 2003). Briefly, recombinant PKD1 (Upstate Biotechnology) was used as the source of enzyme in 20 μl of kinase buffer (50 mM Tris/HCl, pH 7.4, 10 mM MgCl2, 2 mM dithiothreitol). The kinase reaction was carried out for 30 min at room temperature after addition of 10 μl of kinase substrate mixture (150 μM substrate peptide, 50 μM ATP, 10 μCi of [γ-^32P]ATP in kinase buffer). A PKD1-specific substrate (Santa Cruz Biotechnology) was employed as a positive control. […] The reactions were terminated by adding 100 μl of 0.75% H3PO4, and 30 μl of the mixed supernatant was spotted to P-81 phosphocellulose paper (Whatman) in triplicates. Papers were washed thoroughly three times with 0.75% phosphoric acid, once with acetone, dried, and radioactivity incorporated into the synthetic peptide was determined in a scintillation counter. Endogenous PKD1 was immunoprecipitated with an anti-PKD1 antibody (SC-935; Santa Cruz) from 786-O cells lysed in a buffer containing 137 mM NaCl, 20 mM Tris (pH 7.5), 1 mM EGTA, 1 mM EDTA, 10% (v/v) glycerol, 1% (v/v) Nonidet P-40, 1 mM vanadate, and protease inhibitor cocktail (Roche). The immune complexes were washed three times with TBS (50 mM Tris/HCl, pH 7.4, 150 mM NaCl) and subjected to in vitro kinase assays.

[6] = tested on: Sp1; test: anti-Sp1 immunoprecipitation of in vitro translated products; format: binding, rabbit; details: for Sp1 binding: produced in wheat germ extract (modification-deficient)
Protocol: (§2) Previously, it was shown that Myc displacement is mediated by the N-terminal HIF-1α (1-329), which competes with Myc for Sp1 binding in the MSH2 promoter (Koshiji et al, 2005). […] […] […] Of note, removal of part of the PAS-B from the C terminus (codon 299-329) destroyed Sp1 binding.
(§3) Immunoprecipitations and Western blot was performed essentially as described previously (Huang et al., 1998; Koshiji et al., 2005). In vitro translation and immunoprecipitations are described as before (Gu et al., 2001; Koshiji et al., 2005). […]

[7] = tested on: Sp1; test: anti-Sp1 immunoprecipitation followed by immunoblotting in HeLa cells; format: cell-based; details: for Sp1 binding: expressed ectopically in HeLa cells
Protocol: (§4) Immunoprecipitations and Western blot was performed essentially as described previously (Huang et al., 1998; Koshiji et al., 2005). In vitro translation and immunoprecipitations are described as before (Gu et al., 2001; Koshiji et al., 2005). The wheat germ extract system was purchased from Promega. λ protein phosphatase (New England Biolabs) and resveratrol (Sigma) with indicated concentrations were added to the in vitro translated products before immunoprecipitations.

[8] = target: T2, Sp1 (Oryctolagus cuniculus, UniProt G1SL61); test: anti-Sp1 immunoprecipitation of in vitro translated products; format: binding, rabbit; details: for Sp1 binding: translated in rabbit reticulocyte lysate; for competition with PAS1B for Sp1 binding: in vitro translated PAS1B, peptide 10, 100 and 1000 pmol
T2 construct: from tissue; host or cells: rabbit reticulocyte lysate (in vitro translation system)
T2 sequence (G1SL61 1-788): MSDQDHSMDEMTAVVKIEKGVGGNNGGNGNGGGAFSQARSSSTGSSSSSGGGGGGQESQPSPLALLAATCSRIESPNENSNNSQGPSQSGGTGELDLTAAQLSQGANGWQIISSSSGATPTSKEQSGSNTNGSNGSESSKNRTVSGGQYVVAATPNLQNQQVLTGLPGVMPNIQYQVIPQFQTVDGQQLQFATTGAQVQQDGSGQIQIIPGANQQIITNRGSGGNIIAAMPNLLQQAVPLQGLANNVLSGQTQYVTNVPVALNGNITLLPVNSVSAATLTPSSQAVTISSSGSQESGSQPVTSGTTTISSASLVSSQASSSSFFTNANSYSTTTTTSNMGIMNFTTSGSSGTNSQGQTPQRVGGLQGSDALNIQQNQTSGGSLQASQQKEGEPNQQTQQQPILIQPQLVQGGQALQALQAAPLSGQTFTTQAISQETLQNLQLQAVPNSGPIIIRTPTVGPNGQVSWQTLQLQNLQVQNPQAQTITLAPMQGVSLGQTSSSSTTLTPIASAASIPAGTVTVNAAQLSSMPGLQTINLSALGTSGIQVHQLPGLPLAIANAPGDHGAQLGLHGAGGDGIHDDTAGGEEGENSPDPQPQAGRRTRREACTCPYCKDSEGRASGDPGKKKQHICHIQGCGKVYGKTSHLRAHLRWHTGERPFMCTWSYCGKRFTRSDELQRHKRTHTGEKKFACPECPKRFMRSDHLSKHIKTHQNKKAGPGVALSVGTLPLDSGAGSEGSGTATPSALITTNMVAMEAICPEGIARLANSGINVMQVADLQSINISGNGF
Protocol: as §2, §3

[9] = tested on: NBS1; test: NBS1 protein levels by immunoblot in U-2 OS cells expressing PAS-B variants; format: cell-based; details: forced expression in U-2 OS cells
Protocol: as §4
U-2 OS cells were transfected with the Nucleofector system (Amaxa). Briefly, 1×10^6 cells were suspended in 100 μl pre-warmed Nucleofector Solution Kit V containing 2 μg plasmids. After electroporation the cells were transferred immediately into pre-warmed complete McCoy's 5A medium and seeded in 6-well plates. Cells were harvested 48 h after transfection.

[10] = target: synthetic peptide including HIF-2α residues 314-331

5′-AACAGCATCTTTGATAGCAGT-3″ [EPAS1 siRNA]
effect on NBS1 and MSH2 downregulation and PGK1 upregulation in hypoxic cells ([1]; siRNA, hypoxia 1% O2 16 h): no obvious effects
HIF-2α levels [2]: reduced specifically
effect on hypoxic CDC25A down-regulation and PGK1 up-regulation [3]: no obvious effects

CC(=O)N(O)CCCCCNC(=O)CCC(=O)N(O)CCCCCNC(=O)CCC(=O)N(O)CCCCCN [Desferrioxamine, reference compound]
intensified γ-H2AX foci ([4]; U-2 OS cells treated with desferrioxamine, versus hypoxia): much greater increase
γ-H2AX foci per cell, Mean ([4]; U-2 OS cells, desferrioxamine conditions for 72 h): 40.62 foci per cell

Oc1ccc(C=Cc2cc(O)cc(O)c2)cc1 [resveratrol, reference compound]
PKD1-mediated phosphorylation of consensus substrate peptide and HIF-2α peptide ([5]; recombinant PKD1 preincubated with resveratrol (100 μM) for 10 min): abrogated
Sp1 binding of PAS2B ([6]; 100 μM during synthesis of PAS2B in rabbit reticulocyte lysate): established Sp1 binding
PAS2B-Sp1 immunoprecipitated complexes ([7]; HeLa cells expressing PAS2B treated with 5 nM of resveratrol): yielded PAS2B-Sp1 immunoprecipitated complexes

Ac-YGRKKRRQRRRGGGVWLETQGTVIYNPRN L-NH2 [HIF-2α peptide]
phosphorylation of peptide substrate by recombinant PKD1 ([5]; 150 μM substrate peptide, 30 min, room temperature): robustly phosphorylated

HIF-2α: full-length HIF-2α, a close member of the HIF-α family
NBS1 repression ([1]; adenovirus infection 16 h): no inhibition
Sp1 binding [8]: neither full-length HIF-2α nor PAS2B exhibited Sp1-binding activity
Sp1 binding [7]: no Sp1 binding was detected

PAS1B T322E: PAS1B mutant mimicking phosphorylation at Thr-322 with glutamic acid substitution
Sp1 binding [8]: lost Sp1 binding
NBS1 protein levels [9]: failed to do so

PAS1B T322V: PAS1B with T322V mutation
Sp1 binding [8]: maintained PAS1B activity

PAS1B T327P: PAS1B with Thr-327 replaced by the HIF-2α residue proline
competition with PAS1B for Sp1 binding [8]: neither PAS2B nor the PAS1B T327P mutant was able to compete
Sp1 binding [8]: lost Sp1 binding
Sp1 binding [6]: regained binding

PAS2B T324V: PAS2B with Thr-324 mutated to valine
γ-H2AX foci colocalized with 53BP1 ([4]; U-2 OS cells transiently expressing PAS-B variants): significantly increased
Sp1 binding [8]: established binding
NBS1 protein levels [9]: gained its ability to inhibit NBS1 protein levels

PAS2B: HIF-2α PAS-B (codons 195-331)
competition with PAS1B for Sp1 binding [8]: neither PAS2B nor the PAS1B T327P mutant was able to compete
Sp1 binding [8]: neither full-length HIF-2α nor PAS2B exhibited Sp1-binding activity
Sp1 binding [6]: regained binding
Sp1 binding [7]: no Sp1 binding was detected

B1: endogenous PKD1 immunoprecipitated from 786-O cells (protein)
chain: T1 sequence (Q15139 1-912)
in vitro kinase assay with immunoprecipitated endogenous PKD1 and synthetic peptides [10]: endogenous PKD1 immunoprecipitated from 786-O cells specifically phosphorylated HIF-2α at Thr-324
